Assays:
[1] = Pharmacokinetic analysis (oral bioavailability, elimination half-life) in the rat; assay type: in vivo; details: oral administration, 8 mg/kg dose, HPLC-MS
From the text: D. Pharmacokinetic Analysis of Representative Compounds of the Invention
The pharmacokinetic behavior of compound of the invention can be ascertained by methods well known to those skilled in the art. (Wilkinson, G. R. “Pharmacokinetics: The Dynamics of Drug Absorption, Distribution, and Elimination” in Goodman & Gilman's The Pharmacological Basis of Therapeutics, Tenth Edition, Hardman, J. G.; Limbird, L. E., Eds., McGraw Hill, Columbus, Ohio, 2001, Chapter 1.) The following method was used to investigate the pharmacokinetic parameters (elimination half-life, total plasma clearance, etc.) for intravenous, subcutaneous and oral administration of compounds of the present invention. See also U.S. patent application Ser. No. 11/149,512 and Ser. No. 11/149,731 and Intl. Pat. Appl. No. PCT/US2007/017905.
The table below presents oral bioavailability and elimination half-life data in the rat for representative compounds of the present invention. The parameters were determined by HPLC-MS after oral administration of an 8 mg/kg dose of the compound, except for compound 822 where a 2 mg/kg dose was used.

[2] = system: rat plasma; assay: Plasma protein binding, rat plasma; assay type: in vitro ADME; details: test concentration 1 μg/mL
[3] = system: fasted rats; assay: Gastric emptying in fasted rat model, standard method E; assay type: in vivo; details: average where repeated
Protocol: E. Gastric Emptying in Fasted Rat Model
To examine the effects of compounds of the invention in a model for gastroparesis, compounds were evaluated for possible effects on gastric emptying in fasted rats. This model is used to determine the potential of compounds of the invention to promote motility in fasted rats.
• 1. Overnight-fasted rats (male, Wistar, 200 g, n=5/group) were given a meal (2 mL) of methylcellulose (2%) by intragastric gavage. The meal was labeled with phenol red (0.05%). • 2. Test articles (dosed at various concentrations, typically 1, 3, 10, 30 mg/kg), vehicle and positive control (metoclopramide, a 5-HT ligand and prokinetic agent currently prescribed for the treatment of GI disorders, including gastroparesis) were administered by oral gavage immediately after the meal (time=0). • 3. […] Total phenol red remaining in the stomach was quantified by a colorimetric method at 560 nm. • 5. A 30% or more increase in gastric emptying (as compared to the vehicle control) was considered significant. • 6. One-way ANOVA, Dunnet's post-hoc statistical test was applied Results
The effects of representative compounds of the invention in the rat gastric emptying model described in standard method E are provided in the following table. In cases where an experiment was conducted multiple times, the average of the individual results is presented.

[4] = molecular target: GHS-R1a receptor (human ghrelin receptor) (Homo sapiens, UniProt Q92847); assay: Aequorin functional assay (ghrelin receptor), standard method B; assay type: cell-based; details: functional activity at the human ghrelin receptor, standard method B (Aequorin)
From the text: B. Aequorin Functional Assay (Ghrelin Receptor)
See also U.S. patent application Ser. Nos. 11/149,512 and 11/149,731. (LePoul, E.; et al. J. Biomol. Screen. 2002, 7, 57-65; Bednarek, M. A.; et al. J. Med. Chem. 2000, 43, 4370-4376; Palucki, B. L.; et al. Bioorg. Med. Chem. Lett. 2001, 11, 1955-1957.) Functional activity at the gherlin receptor for representative compounds of the present invention is presented in the Examples.

[5] = system: human plasma; assay: Plasma protein binding, human plasma (equilibrium dialysis); assay type: in vitro ADME; details: test concentration 1 μg/mL
From the text: J. Plasma Protein Binding
The pharmacokinetic and pharmacodynamic properties of drugs are largely a function of the reversible binding of drugs to plasma or serum proteins such as albumin and α1-acid glycoprotein. In general, only unbound drug is available for diffusion or transport across cell membranes, and for interaction at the pharmacological target. On the other hand, drugs with low plasma protein binding generally have large volumes of distribution and rapid clearance since only unbound drug is available for glomerular filtration and, in some cases, hepatic clearance. Thus, the extent of plasma protein binding can influence efficacy, distribution and elimination. The ideal range for plasma protein binding is in the range of 87-98% for most drug products.
Protein binding studies were performed using human plasma. Briefly, 96-well microplates were used to incubate various concentrations of the test article for 60 min at 37° C. Bound and unbound fractions are separated by equilibrium dialysis, where the concentration remaining in the unbound fraction is quantified by LC-MS or LC-MS-MS analysis. […].
The table below presents protein binding data for representative compounds of the present invention in both human and rat plasma.

[6] = molecular target: human growth hormone secretagogue receptor (hGHS-R1a) (Homo sapiens, UniProt Q92847); assay: Competitive radioligand binding assay (ghrelin receptor), standard method A; details: binding activity at the human ghrelin receptor, standard method A
Chain of human growth hormone secretagogue receptor (hGHS-R1a) (Q92847 whole entry): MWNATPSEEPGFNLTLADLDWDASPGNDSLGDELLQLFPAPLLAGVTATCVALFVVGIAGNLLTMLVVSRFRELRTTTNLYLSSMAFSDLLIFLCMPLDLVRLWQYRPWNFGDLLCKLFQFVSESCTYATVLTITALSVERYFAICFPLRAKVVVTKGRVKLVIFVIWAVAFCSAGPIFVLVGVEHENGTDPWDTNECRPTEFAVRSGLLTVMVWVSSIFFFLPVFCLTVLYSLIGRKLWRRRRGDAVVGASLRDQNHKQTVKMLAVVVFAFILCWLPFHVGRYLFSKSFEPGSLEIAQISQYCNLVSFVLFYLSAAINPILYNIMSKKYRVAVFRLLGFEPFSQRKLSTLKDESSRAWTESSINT

Chain of GHS-R1a receptor (human ghrelin receptor) (Q92847 whole entry): as above

## CC(C)C[C@H]1NC(=O)[C@@H](C)N(C)C(=O)[C@H](C2CC2)NC[C@H]2CCc3cccc(c3O2)CCCNC1=O [Compound 802]
[1]
  Elimination Half-life (t1/2, rat, min): 160 min
  Oral Bioavailability (rat, % F): 26 % F
[2]
  Rat Plasma Protein Binding (%): 99.8%
[3]; dose 1 mg/kg
  Percent Increase in Gastric Emptying After Oral Administration: 12%
[3]; dose 3 mg/kg
  Percent Increase in Gastric Emptying After Oral Administration: 11%
[3]; dose 10 mg/kg
  Percent Increase in Gastric Emptying After Oral Administration: 26%
[4]
  EC50: ≤ 100 nM
[5]
  Human Plasma Protein Binding (%): 93.4%
[6]
  Ki: ≤ 100 nM

From US10258602B2 (Ocera Therapeutics, Inc., priority 2007, dated 2019)
